Results taken from US20180168208A1 (priority 2014, published 2018).
Where two headings read alike, the source gives them in different places.

Assays:
T1R1/T1R3 receptor [1] = molecular target: T1, T1R1/T1R3 receptor (Felis catus, UniProt E3UMS2); experiment: Example 8: agonist screening of transmembrane compounds on T1R1/T1R3 in HEK293 cells; format: cell-based, cat; details: for agonist profile assessment (agonist activity): transmembrane compound alone; for T1R1/T1R3 agonist: transmembrane compound tested at 0.01, 0.1 and 1 mM, HEK293 cells expressing T1R1/T1R3, intracellular calcium
Procedure: (§1) HEK293 cells that stably express T1R3 and inducibly express T1R1 were exposed to a transmembrane compound. Activation of the T1R1/T1R3 receptor was detected by a change in intracellular calcium levels using a calcium sensitive fluorescent dye and/or a luminescent reporter system. […] A FLIPR® Tetra or a FlexStation® 3 was used for data capture.
Each transmembrane compound was tested at concentrations of 0.01 mM, 0.1 mM, and 1 mM. […] To generate the dose response curves, the transmembrane compound was tested at concentrations of between 0.0001 mM and 1.0 mM in the presence of GMP and Ala.

T1R1/T1R3 receptor [2] = molecular target: T1, T1R1/T1R3 receptor; experiment: cell-based
Excerpt: (§2) HEK293 cells that stably express T1R3 and inducibly express T1R1 were exposed to nucleotide derivatives alone to activate the umami receptor. Activation of the T1R1/T1R3 receptor was detected by a change in intracellular calcium levels using a calcium sensitive fluorescent dye. Cells that express T1R3 but not T1R1 were used as a control. A FLIPR® Tetra or a FlexStation® 3 was used for data capture.
as §2, with “alone or in combination with one or more amino acids and/or one or more nucleotides” for “alone”, “dye and/or a luminescent reporter system.” for “dye.”
as §2, with “transmembrane compounds” for “nucleotide derivatives”, “alone or in combination with one or more amino acids and/or one or more nucleotides” for “alone”
In each experiment, serial dilutions of up to 10 mM of the transmembrane compound were added to the T1R1/T1R3-expressing cells.

T1R1/T1R3 receptor [3] = molecular target: T1, T1R1/T1R3 receptor; experiment: Example 8: PAM screening of transmembrane compounds with GMP and Ala on T1R1/T1R3 in HEK293 cells; format: cell-based, cat; details: for PAM profile assessment (PAM activity): in the presence of GMP and Alanine; for T1R1/T1R3 PAM: compound at 0.01, 0.1 and 1 mM in combination with GMP+Ala mixtures (T1-T4), PAM if response greater than sum of compound alone and GMP+Ala alone
Excerpt: as §1, with “to” for “to a”, “compound alone or in combination with Ala and GMP to activate the umami receptor.” for “compound.”
Dose response curves were generated for each transmembrane compound at concentrations of 0 (buffer only), 0.01, 0.1 and 1 mM, wherein each of the three concentrations of transmembrane compound was tested in combination with 0.03 mM GMP+100 mM Ala (T1); 0.6 mM GMP+10 mM Ala (T2); 0.1 mM GMP+60 mM Ala (T3) and 0.3 mM GMP+60 mM Ala (T4). The T4 mixture was also tested in a 2-fold dilution series (the T4(×) Concentration). In these experiments, the first test concentration was 2× (2 times) the T4 concentration. The subsequent test concentrations were 2-fold dilutions from that (1×, 0.5×etc.). This dilution series was tested with or without the addition of the test compound at a constant 0.3 mM concentration.
Activation of the umami receptor was also determined in the presence of 1 mM GMP+100 mM Ala to generate a “maximum” umami receptor activation level.

In the case of `O=C1CC(=O)N(Cc2ccccc2)C(=O)N1Cc1ccccc1` [1,3-dibenzylpyrimidine-2,4,6(1H,3H,5H)-trione], the “agonist profile assessment (agonist activity)” value (“agonist profile assessment” below) (T1R1/T1R3 receptor [1]) is reported as “agonist activity”, the “Max resp % of IMP, +Alanine (20 mM)” value (T1R1/T1R3 receptor [2]) is reported as 42.7% and the “Thres (mM), +Alanine (20 mM)” value (T1R1/T1R3 receptor [2]) is reported as 0.1 mM. The EC50 (T1R1/T1R3 receptor [2]; EC50 (mM), +Alanine (20 mM)) was 0.31 mM, the EC50 (T1R1/T1R3 receptor [2]; EC50 (mM), +Alanine (20 mM) + IMP (0.2 mM)) was > 0.3 mM and the EC50 (T1R1/T1R3 receptor [2]; EC50 (mM), +IMP (0.2 mM), in the presence of 0.2 mM IMP) was 0.52 mM. For the same compound, the EC50 (T1R1/T1R3 receptor [2]; T1R1/T1R3 EC50 +0.2 mM IMP, +0.2 mM IMP) was 0.52 ± 0.19 mM, the EC50 (T1R1/T1R3 receptor [2]; T1R1/T1R3 EC50 +20 mM L-alanine) was 0.31 ± 0.05 mM and the EC50 (T1R1/T1R3 receptor [2]; T1R1/T1R3 EC50 +20 mM L-alanine + 0.2 mM IMP) was > 0.3 mM. For the same compound, the EC50 (T1R1/T1R3 receptor [2]; alone in buffer, read-out: T1R1/T1R3 EC50 alone in buffer) was 0.26 ± 0.01 mM, the EC50 (T1R1/T1R3 receptor [2]; compound alone in buffer, read-out: EC50 (mM), +buffer (alone)) was 0.26 mM and the “Max resp % of Ala, +IMP (0.2 mM)” value (T1R1/T1R3 receptor [2]; in the presence of 0.2 mM IMP, relative to alanine) was 35.7%. For the same compound, the “Thres (mM), +IMP (0.2 mM)” value (T1R1/T1R3 receptor [2]; threshold concentration in the presence of 0.2 mM IMP) was 0.1 mM.
For `O=C(CN1C(=O)C(=O)N(Cc2ccccc2)C1=O)c1ccc2c(c1)OCCCO2` [1-benzyl-3-(2-(3,4-dihydro-2H-benzo[b][1,4]dioxepin-7-yl)-2-oxoethyl)imidazolidine-2,4,5-trione], the “PAM profile assessment (PAM activity)” value (T1R1/T1R3 receptor [3]) was “PAM activity”.
With `O=C(CN1C(=O)C(=O)N(Cc2ccccc2)C1=O)c1ccc(Cl)s1` [1-benzyl-3-(2-(5-chlorothiophen-2-yl)-2-oxoethyl)imidazolidine-2,4,5-trione] the “PAM profile assessment (PAM activity)” value (T1R1/T1R3 receptor [3]) was “PAM activity”.
With `COC(=O)[C@H](CC(C)C)NCc1ccccc1.Cl` [Benzyl-L-leucine methyl ester hydrochloride] the “agonist profile assessment” value (T1R1/T1R3 receptor [1]) was “agonist” and the “PAM profile assessment (PAM activity)” value (T1R1/T1R3 receptor [3]) was “PAM activity”.
For `O=C(CN1C(=O)C(=O)N(Cc2ccccc2)C1=O)c1ccccc1` [Formula 1, 1-benzyl-3-(2-oxo-2-phenylethyl)imidazolidine-2,4,5-trione], the T1R1/T1R3 agonist (T1R1/T1R3 receptor [1]) was “No” and the “T1R1/T1R3 PAM” value (T1R1/T1R3 receptor [3]) was “No”.
With `O=C(CN1C(=O)C(=O)N(Cc2ccccc2)C1=O)c1ccc2c(c1)CCC2` [Formula 2, 1-benzyl-3-(2-(2,3-dihydro-1H-inden-5-yl)-2-oxoethyl)imidazolidine-2,4,5-trione] the T1R1/T1R3 agonist (T1R1/T1R3 receptor [1]) was “No” and the “T1R1/T1R3 PAM” value (T1R1/T1R3 receptor [3]) was “No”.
With `O=C(CN1C(=O)C(=O)N(Cc2ccccc2)C1=O)c1ccc(Br)cc1` [Formula 3, 1-benzyl-3-(2-(4-bromophenyl)-2-oxoethyl)imidazolidine-2,4,5-trione] the T1R1/T1R3 agonist (T1R1/T1R3 receptor [1]) was “No” and the “T1R1/T1R3 PAM” value (T1R1/T1R3 receptor [3]) was “No”.
In the case of `O=C(CN1C(=O)C(=O)N(Cc2ccccc2)C1=O)c1ccc2c(c1)OCCO2` [Formula 4, 1-benzyl-3-(2-(2,3-dihydrobenzo[b][1,4]dioxin-6-yl)-2-oxoethyl)imidazolidine-2,4,5-trione], the T1R1/T1R3 agonist (T1R1/T1R3 receptor [1]) is reported as “No” and the “T1R1/T1R3 PAM” value (T1R1/T1R3 receptor [3]) is reported as “No”.
In the case of `COc1ccc(C(=O)CN2C(=O)C(=O)N(Cc3ccccc3)C2=O)c(OC)c1` [Formula 5, 1-benzyl-3-(2-(2,4-dimethoxyphenyl)-2-oxoethyl)imidazolidine-2,4,5-trione], the T1R1/T1R3 agonist (T1R1/T1R3 receptor [1]) is reported as “No” and the “T1R1/T1R3 PAM” value (T1R1/T1R3 receptor [3]) is reported as “No”.
`O=C(CN1C(=O)C(=O)N(CCc2cccs2)C1=O)c1ccccc1` [Formula 6, 1-(2-oxo-2-phenylethyl)-3-(2-(thiophen-2-yl)ethyl)imidazolidine-2,4,5-trione] was tested, and the T1R1/T1R3 agonist (T1R1/T1R3 receptor [1]) was “No” and the “T1R1/T1R3 PAM” value (T1R1/T1R3 receptor [3]) was “No”.
`O=C(CN1C(=O)C(=O)N(CCc2cccs2)C1=O)c1ccc2c(c1)OCO2` [Formula 7, 1-(2-(benzo[d][1,3]dioxol-5-yl)-2-oxoethyl)-3-(2-(thiophen-2-yl)ethyl)imidazolidine-2,4,5-trione] was tested, and the T1R1/T1R3 agonist (T1R1/T1R3 receptor [1]) was “No” and the “T1R1/T1R3 PAM” value (T1R1/T1R3 receptor [3]) was “No”.
With `O=C(CN1C(=O)C(=O)N(Cc2ccccc2)C1=O)c1ccc2c(c1)OCCCO2` [Formula 8, 1-benzyl-3-(2-(3,4-dihydro-2H-benzo[b][1,4]dioxepin-7-yl)-2-oxoethyl)imidazolidine-2,4,5-trione] the T1R1/T1R3 agonist (T1R1/T1R3 receptor [1]) was “No” and the “T1R1/T1R3 PAM” value (T1R1/T1R3 receptor [3]) was “Weak PAM”.
`N#Cc1cccc(NC(=O)CN2C(=O)C(=O)N(Cc3ccccc3)C2=O)c1` [Formula 9, 2-(3-benzyl-2,4,5-trioxoimidazolidin-1-yl)-N-(3-cyanophenyl)acetamide] was tested, and the T1R1/T1R3 agonist (T1R1/T1R3 receptor [1]) was “No” and the “T1R1/T1R3 PAM” value (T1R1/T1R3 receptor [3]) was “No”.
In the case of `COc1ccccc1C(=O)CN1C(=O)C(=O)N(Cc2cccs2)C1=O` [Formula 10, 1-(2-(2-methoxyphenyl)-2-oxoethyl)-3-(thiophen-2-ylmethyl)imidazolidine-2,4,5-trione], the T1R1/T1R3 agonist (T1R1/T1R3 receptor [1]) is reported as “No” and the “T1R1/T1R3 PAM” value (T1R1/T1R3 receptor [3]) is reported as “No”.
For `O=C(CN1C(=O)C(=O)N(CCc2cccs2)C1=O)c1cccc2ccccc12` [Formula 11, 1-(2-(naphthalen-1-yl)-2-oxoethyl)-3-(2-(thiophen-2-yl)ethyl)imidazolidine-2,4,5-trione], the T1R1/T1R3 agonist (T1R1/T1R3 receptor [1]) was “No” and the “T1R1/T1R3 PAM” value (T1R1/T1R3 receptor [3]) was “No”.
For `O=C(CN1C(=O)C(=O)N(Cc2ccccc2)C1=O)c1ccc(Cl)s1` [Formula 12, 1-benzyl-3-(2-(5-chlorothiophen-2-yl)-2-oxoethyl)imidazolidine-2,4,5-trione], the T1R1/T1R3 agonist (T1R1/T1R3 receptor [1]) was “No” and the “T1R1/T1R3 PAM” value (T1R1/T1R3 receptor [3]) was “Weak PAM”.
With `O=C1C(=O)N(Cc2ccccc2)C(=S)N1Cc1ccccc1` [Formula 13, 1,3-dibenzyl-2-thioxoimidazolidine-4,5-dione] the T1R1/T1R3 agonist (T1R1/T1R3 receptor [1]) was “No” and the “T1R1/T1R3 PAM” value (T1R1/T1R3 receptor [3]) was “No”.
In the case of `CCCC(CCC)NC(=O)c1ccc2c(c1)OCO2` [Formula 14, N-(heptan-4-yl)benzo[d][1,3]dioxole-5-carboxamide], the T1R1/T1R3 agonist (T1R1/T1R3 receptor [1]) is reported as “Yes” and the “T1R1/T1R3 PAM” value (T1R1/T1R3 receptor [3]) is reported as “Yes”.
For `COC(=O)[C@H](Cc1ccccc1)NCc1ccccc1.Cl` [Formula 15, N-Benzyl-L-phenylalanine methyl ester hydrochloride], the T1R1/T1R3 agonist (T1R1/T1R3 receptor [1]) was “Yes” and the “T1R1/T1R3 PAM” value (T1R1/T1R3 receptor [3]) was “Yes”.
In the case of `COC(=O)[C@@H](Cc1ccccc1)NCc1ccccc1.Cl` [Formula 16, N-Benzyl-D-Phenylalanine methyl ester hydrochloride], the T1R1/T1R3 agonist (T1R1/T1R3 receptor [1]) is reported as “Yes” and the “T1R1/T1R3 PAM” value (T1R1/T1R3 receptor [3]) is reported as “Yes”.
`COC(=O)[C@H](CC(C)C)NCc1ccccc1.Cl` [Formula 18, Benzyl-L-leucine methyl ester hydrochloride] was tested, and the T1R1/T1R3 agonist (T1R1/T1R3 receptor [1]) was “Yes” and the “T1R1/T1R3 PAM” value (T1R1/T1R3 receptor [3]) was “Yes”.
For `COC(=O)C(NCc1ccccc1)c1ccccc1` (stereo not shown) [Formula 19, Methyl-2-benzylamino-2-phenylacetate], the T1R1/T1R3 agonist (T1R1/T1R3 receptor [1]) was “Yes” and the “T1R1/T1R3 PAM” value (T1R1/T1R3 receptor [3]) was “Yes”.
With `Cl.N[C@@H](Cc1ccccc1)C(=O)OCc1ccccc1` [Formula 20, L-Phenylalanine benzyl ester hydrochloride] the T1R1/T1R3 agonist (T1R1/T1R3 receptor [1]) was “Yes” and the “T1R1/T1R3 PAM” value (T1R1/T1R3 receptor [3]) was “Yes”.
For `N[C@@H](Cc1ccc(O)cc1)C(=O)OCc1ccccc1` [Formula 21, L-Tyrosine benzyl ester], the T1R1/T1R3 agonist (T1R1/T1R3 receptor [1]) was “No” and the “T1R1/T1R3 PAM” value (T1R1/T1R3 receptor [3]) was “No”.
`O=C(O)[C@H](Cc1ccc(O)cc1)NCc1ccccc1` [Formula 22, N-Benzyl-L-Tyrosine] was tested, and the T1R1/T1R3 agonist (T1R1/T1R3 receptor [1]) was “No” and the “T1R1/T1R3 PAM” value (T1R1/T1R3 receptor [3]) was “No”.
With `Cc1ccc(CNC(Cc2ccccc2)C(=O)O)cc1` (stereo not shown) [Formula 23, 2-((4-methylbenzyl)amino)-3-phenylpropanoic acid] the T1R1/T1R3 agonist (T1R1/T1R3 receptor [1]) was “No” and the “T1R1/T1R3 PAM” value (T1R1/T1R3 receptor [3]) was “No”.
For `O=C1CC(=O)N(Cc2ccccc2)C(=O)N1Cc1ccccc1` [Formula 24, 1,3-dibenzylpyrimidine-2,4,6(1H,3H,5H)-trione], the T1R1/T1R3 agonist (T1R1/T1R3 receptor [1]) was “Yes” and the “T1R1/T1R3 PAM” value (T1R1/T1R3 receptor [3]) was “No”.
`Cl.N[C@@H](Cc1ccccc1)C(=O)OCc1ccccc1` [L-Phenylalanine benzyl ester hydrochloride] was tested, and the “agonist profile assessment” value (T1R1/T1R3 receptor [1]) was “agonist” and the “PAM profile assessment (PAM activity)” value (T1R1/T1R3 receptor [3]) was “PAM activity”.
With `COC(=O)C(NCc1ccccc1)c1ccccc1` (stereo not shown) [Methyl-2-benzylamino-2-phenylacetate] the “agonist profile assessment” value (T1R1/T1R3 receptor [1]) was “agonist” and the “PAM profile assessment (PAM activity)” value (T1R1/T1R3 receptor [3]) was “PAM activity”.
